The results in this text go back to ChEMBL document CHEMBL1201862, “PubChem BioAssay data set” (2004).

SMILES strings stand for the structures. Activity calls are given as the source filed them.

Assay [1] in a line: inhibitors of Vif binding to APOBEC3G peptide, primary screen, biochemical, TR-FRET, GST-Vif 1-94, biotin-A3G peptide, dose response retest (AID 1117319).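 Also: TR-FRET signal of purified GST-Vif binding a biotinylated A3G peptide; inhibitors lower the FRET signal by blocking Vif and A3G binding.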 It counts as functional. In general terms: Time-resolved FRET reads energy transfer from a long-lived donor to a nearby acceptor.
A short description of assay [2]: NIH:OVCAR-3 ovarian cancer cell cytotoxicity, dose response, PAX8 inhibitor project, plate reader, dry powder samples (AID 743044). The assay is classed as functional, cell-based.
A short description of assay [3]: non-specific cell cytotoxicity, dose response, cytotoxicity control for PAX8 inhibitor project, plate reader, dry powder samples (AID 743021). It counts as functional, cell-based.
Assay [4] is described as follows: cytotoxicity in OVCAR8 ovarian cancer cells, dose response, PAX8 project, cell-based, plate reader, dry powder samples (AID 743197). The assay is classed as functional. The note with it: OVCAR-8.
Assay [5] can be described thus: P. falciparum Dd2 blood-stage growth inhibition, dose response, SYBR Green fluorescence, erythrocytes, dry powder, set 2 (AID 1159574). The assay is classed as functional, cell-based.
The next assay addresses Paired box protein Pax-8 (Homo sapiens, UniProt Q06710). The assay is described as follows: inhibitors of PAX8-driven TPO luciferase reporter, dose response, RMG-I cells, cherry-pick (AID 687027).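 Also: luciferase reporter driven by Pax8 target thyroperoxidase promoter measured by SteadyGlo luminescence.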 It counts as functional, cell-based. Background: Reporter assays use an easily measured gene product as a stand-in for the process of interest.
Assay [6] deals with T1, Bcl-2-related protein A1 (Mus musculus, UniProt Q07440).
T1 sequence (Q07440 whole entry): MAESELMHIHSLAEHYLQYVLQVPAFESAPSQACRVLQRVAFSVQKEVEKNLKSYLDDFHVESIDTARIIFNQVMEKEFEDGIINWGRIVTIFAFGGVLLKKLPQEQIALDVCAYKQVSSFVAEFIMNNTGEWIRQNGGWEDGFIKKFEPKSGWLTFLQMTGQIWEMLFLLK
The assay is described as follows: Bfl-1 binding inhibitors, SAR follow-up, biochemical, fluorescence polarization (AID 1070). (Fluorescence polarisation rises when a labelled molecule tumbles more slowly, as on binding a larger partner.)

In assay [7] the target is Glyceraldehyde-3-phosphate dehydrogenase (Homo sapiens, UniProt P04406).
Chain of Glyceraldehyde-3-phosphate dehydrogenase (P04406 whole entry): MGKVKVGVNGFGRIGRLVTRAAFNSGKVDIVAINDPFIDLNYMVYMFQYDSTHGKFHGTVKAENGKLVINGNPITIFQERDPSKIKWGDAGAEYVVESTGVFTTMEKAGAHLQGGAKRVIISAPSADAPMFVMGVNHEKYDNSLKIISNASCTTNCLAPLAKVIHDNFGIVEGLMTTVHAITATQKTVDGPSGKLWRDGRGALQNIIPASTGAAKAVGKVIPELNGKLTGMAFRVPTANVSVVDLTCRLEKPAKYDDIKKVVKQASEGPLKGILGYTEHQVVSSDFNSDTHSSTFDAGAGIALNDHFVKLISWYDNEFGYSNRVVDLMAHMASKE
In assay [8] the target is T1, Bcl-2-related protein A1. The assay is described as follows: Bfl-1 inhibitors blocking BH3 peptide binding, confirmation, biochemical, TR-FRET, mouse Bfl-1 (AID 621).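 Also: TR-FRET binding of GST-Bfl-1 to FITC-labelled Bid peptide via terbium antibody.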
Assay [9] can be described thus: Intein inhibitors as potential Tuberculosis drugs, a cytotoxicity screen. [Related pubchem assays (depositor defined):AID2221, AID2223, AID434968, AID435010, AID449749, AID449750, AID489010]. The assay is classed as functional.
A further assay concerns the target T2, Protein RecA (Mycobacterium tuberculosis, UniProt P9WHJ3).
T2 sequence (P9WHJ3 whole entry): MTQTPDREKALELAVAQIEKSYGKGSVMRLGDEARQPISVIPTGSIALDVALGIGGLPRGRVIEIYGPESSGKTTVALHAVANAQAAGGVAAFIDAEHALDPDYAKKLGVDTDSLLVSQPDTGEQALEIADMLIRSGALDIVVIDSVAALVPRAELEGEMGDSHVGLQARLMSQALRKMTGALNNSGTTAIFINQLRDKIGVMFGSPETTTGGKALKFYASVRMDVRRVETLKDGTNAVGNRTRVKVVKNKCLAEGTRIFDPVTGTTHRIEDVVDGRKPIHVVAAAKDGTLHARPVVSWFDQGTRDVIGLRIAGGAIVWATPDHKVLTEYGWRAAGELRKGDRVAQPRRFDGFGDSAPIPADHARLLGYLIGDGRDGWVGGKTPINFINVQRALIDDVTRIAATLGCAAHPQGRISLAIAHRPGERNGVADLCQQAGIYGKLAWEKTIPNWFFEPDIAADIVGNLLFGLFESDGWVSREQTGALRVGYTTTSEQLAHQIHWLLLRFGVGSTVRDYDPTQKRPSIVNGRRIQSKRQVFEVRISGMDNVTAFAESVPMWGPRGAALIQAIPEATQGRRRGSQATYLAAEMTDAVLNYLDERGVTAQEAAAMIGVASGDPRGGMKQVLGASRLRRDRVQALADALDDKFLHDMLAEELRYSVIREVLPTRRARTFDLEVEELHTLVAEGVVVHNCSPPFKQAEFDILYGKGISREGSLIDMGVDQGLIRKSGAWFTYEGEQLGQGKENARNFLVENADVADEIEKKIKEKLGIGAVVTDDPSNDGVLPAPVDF
The assay is described as follows: Fluorescence Cell-Free Homogeneous Dose Retest to Identify Inhibitors of RecA-Intein Splicing Activity. [Related pubchem assays (depositor defined):AID2097, AID2223, AID489010, AID492950]. The assay is classed as functional.

Another assay relates to BJ. The assay is described as follows: cytotoxicity toward Ras-transformed BJeLR fibroblasts, dose response, cell-based, alamar blue fluorescence, cherrypicked samples (AID 2631).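 Also: confirmatory dose-response assay in RAS-dependent BJ fibroblasts engineered with TERT, LT and ST, with cytotoxicity read by fluorescence.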 To be noted: Homo sapiens. The assay is classed as functional.
Assay [10] in a line: growth suppression of beta-catenin-knockout colon cells, dose response, cell-based, HCT116, human colon tumor (AID 1045).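 Also: HCT116 colon tumor cells with beta catenin knocked out; cells exposed to compound for 60 hours.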 The assay is classed as functional.
A short description of assay [11]: Luminescent dose response cell-based high throughput screening assay for inhibitors of the Janus kinase 2 mutant JAK2V617F. [Related pubchem assays: 1446 (Primary screen.), 1521 (Confirmation assay.), 1486 (Counter screen.)]. It counts as functional.
Assay [12] addresses T3, Replicative DNA helicase DnaB (Mycobacterium tuberculosis, UniProt P9WMR3).
T3 sequence (P9WMR3 whole entry): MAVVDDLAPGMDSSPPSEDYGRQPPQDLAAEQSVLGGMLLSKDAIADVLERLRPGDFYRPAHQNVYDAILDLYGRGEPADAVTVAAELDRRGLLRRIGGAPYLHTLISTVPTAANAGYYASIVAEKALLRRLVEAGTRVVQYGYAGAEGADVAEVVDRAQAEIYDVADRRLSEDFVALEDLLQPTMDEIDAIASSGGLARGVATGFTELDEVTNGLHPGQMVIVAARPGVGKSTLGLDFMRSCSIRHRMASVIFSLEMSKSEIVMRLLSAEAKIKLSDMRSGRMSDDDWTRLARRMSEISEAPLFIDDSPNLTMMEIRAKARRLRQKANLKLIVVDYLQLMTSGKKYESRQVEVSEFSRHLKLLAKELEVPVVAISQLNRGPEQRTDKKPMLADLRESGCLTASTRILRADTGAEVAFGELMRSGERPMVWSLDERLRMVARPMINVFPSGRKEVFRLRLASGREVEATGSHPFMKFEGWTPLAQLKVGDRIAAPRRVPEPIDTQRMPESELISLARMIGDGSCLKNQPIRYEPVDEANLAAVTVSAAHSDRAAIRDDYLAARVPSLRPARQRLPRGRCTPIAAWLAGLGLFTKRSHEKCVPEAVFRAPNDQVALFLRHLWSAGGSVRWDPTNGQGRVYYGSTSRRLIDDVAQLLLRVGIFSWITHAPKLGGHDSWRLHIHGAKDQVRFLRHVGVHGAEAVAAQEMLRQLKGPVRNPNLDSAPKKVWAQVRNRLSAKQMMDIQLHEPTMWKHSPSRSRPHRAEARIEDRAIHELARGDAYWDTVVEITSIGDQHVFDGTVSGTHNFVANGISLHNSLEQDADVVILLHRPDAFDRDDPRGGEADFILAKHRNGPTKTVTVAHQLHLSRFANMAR
The assay is described as follows: DnaB intein splicing inhibitors, dose response, biochemical, cell-free fluorescence (AID 449749). It counts as functional.

The nature of assay [13]: growth suppression of PTEN-null colon cells, dose response, cell-based, HCT116 PTEN knockout (AID 1047).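 Also: HCT116 colon tumor cells with PTEN knocked out; cells exposed to compound for 60 hours before readout; potency for loss of cell viability measured by luminescence.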 It counts as functional.
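For CC50 in this document: cells exposed to compound for 72 hours before luminescence readout.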

Chain of Paired box protein Pax-8 (Q06710 whole entry): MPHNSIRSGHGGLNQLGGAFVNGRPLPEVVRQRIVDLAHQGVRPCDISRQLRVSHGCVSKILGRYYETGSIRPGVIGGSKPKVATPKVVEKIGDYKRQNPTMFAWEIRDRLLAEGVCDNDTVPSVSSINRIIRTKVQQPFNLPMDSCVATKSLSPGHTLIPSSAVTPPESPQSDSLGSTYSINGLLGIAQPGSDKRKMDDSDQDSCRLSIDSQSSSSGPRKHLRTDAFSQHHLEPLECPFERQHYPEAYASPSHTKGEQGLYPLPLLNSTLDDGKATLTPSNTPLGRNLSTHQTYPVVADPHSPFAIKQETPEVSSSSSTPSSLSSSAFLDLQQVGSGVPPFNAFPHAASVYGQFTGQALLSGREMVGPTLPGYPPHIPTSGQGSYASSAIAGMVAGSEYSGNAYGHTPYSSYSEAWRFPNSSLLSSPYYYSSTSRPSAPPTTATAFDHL

For `CCOc1ccc(N/C([S-])=C(/C(=O)c2ccc(C)c([N+](=O)[O-])c2)[n+]2ccccc2)cc1`, the half-inhibitory concentration (IC50) in [1] was > 100 µM (active).
For the compound `COc1ccc(NC(=O)N2CCCCN3[C@H](C2)[C@@H](c2ccc(C#Cc4ccccc4)cc2)[C@@H]3CO)cc1`, the AC50 in assay [2] was 58.4 µM (active); in assay [3], 29.7 µM (active); in assay [4] it was 39.7 µM (active); in assay [5], 2.1 µM (active); on Paired box protein Pax-8, 5.67 µM (active).
For `O=C1C(Cl)=C(Cl)C(=O)N1c1ccc(Cl)c(Cl)c1`, the results for the half-maximal inhibitory concentration (IC50) (on Bcl-2-related protein A1 [6]; in [7]; at Bcl-2-related protein A1 [8]) were 1.15 µM (active), > 100 µM (not active) and 0.77 µM (active), respectively.
In the same order, the values of `CN1CCN(C2=C(Cl)C(=O)N(c3ccc(Cl)cc3Cl)C2=O)CC1` are 2.62 µM (active), > 100 µM (not active) and 1.36 µM (active).
On to `COc1cccc(N(C(=O)CCl)C(C(=O)NCCc2ccccc2)c2cccs2)c1` (centres undefined), for which the CC50 in assay [9] is 0.2 µM (active). For the same compound, the EC50 on Protein RecA was 0.329 µM (active); in the assay on BJ, 3.95 µM (active); in assay [10], 1.48 µM (active); in [13] it was 1.59 µM (active). Further, in assay [11], the IC50 was 0.581 µM (active). In assay [12], the AC50 is 2.11 µM (active).

The IC50 is the midpoint of a concentration-inhibition curve. What is called AC50 is the midpoint of the concentration-response curve, whichever way the signal moves. The term CC50 denotes the concentration at which the toxic effect on the cells reaches its halfway point. As a reminder, the EC50 is the concentration at which the effect is half-maximal.
